Reference: patent US10105357B2, “Indication of antibiotic drugs for preparation of cancer inhibition pharmaceutical composition” (LAUNX BIOMEDICAL CO., LTD., priority 2014, dated 2018)
Read-outs that look alike come from different tables or passages of the source.

Experiments:
[1] = tested on: BCC (basal cell carcinoma); test: Cell viability analysis, skin cancer BCC; assay type: cell-based, human; details: Homo sapiens, 72 h; BCC; repeated experiment; read-out: The results of antibiotic drug inhibiting cancer cell lines (cell viability analysis), BCC
[2] = tested on: HepG2 (Hepatocellular Carcinoma); test: Cell viability analysis, hepatic cancer HepG2; assay type: cell-based, human; details: Homo sapiens, HepG2, 72 h
[3] = tested on: HI650 (Lung Adenocarcinoma); test: Cell viability analysis, lung cancer HI650; assay type: cell-based, human; details: Homo sapiens, NCI-H1650, 72 h
[4] = tested on: C-33A (Cervical carcinoma); test: Cell viability analysis, cervical cancer C-33A; assay type: cell-based, human; details: Homo sapiens, 72 h; C-33A; repeated experiment; read-out: The results of antibiotic drug inhibiting cancer cell lines (cell viability analysis), C-33A
AsPC-1 = test: Cell viability analysis, pancreatic cancer AsPC-1; assay type: cell-based, human; details: Homo sapiens, ASPC1, 72 h; AsPC-1; repeated experiment; read-out: The results of antibiotic drug inhibiting cancer cell lines (cell viability analysis), AsPC-1
[5] = tested on: TSGH-8301 (Urinary Bladder Carcinoma); test: Cell viability analysis, bladder cancer TSGH-8301; assay type: cell-based, human; details: Homo sapiens, 72 h
[6] = tested on: HeLa (Cervix Adenocarcinoma); test: Cell viability analysis, cervical cancer HeLa; assay type: cell-based, human; details: Homo sapiens, HeLa, 72 h, HeLa
TOV-21G = test: Cell viability analysis, ovarian cancer TOV-21G; assay type: cell-based, human; details: Homo sapiens, TOV21G, 72 h; TOV-21G; repeated experiment; read-out: The results of antibiotic drug inhibiting cancer cell lines (cell viability analysis), TOV-21G
[7] = tested on: SAS (Tongue squamous cell carcinoma); test: Cell viability analysis, tongue cancer SAS; assay type: cell-based, human; details: Homo sapiens, 72 h; SAS; repeated experiment; read-out: The results of antibiotic drug inhibiting cancer cell lines (cell viability analysis), SAS
[8] = tested on: PC3 (p53−) (Prostate Adenocarcinoma); test: Cell viability analysis, prostate cancer PC3; assay type: cell-based, human; details: Homo sapiens, 72 h
[9] = tested on: HCT116 (p53+) (Colorectal Carcinoma)
T24 = test: Cell viability analysis, bladder cancer T24; assay type: cell-based, human; details: Homo sapiens, T-24, 72 h; T24; repeated experiment; read-out: The results of antibiotic drug inhibiting cancer cell lines (cell viability analysis), T24
[10] = tested on: AGS (Gastric Adenocarcinoma); test: Cell viability analysis, gastric cancer AGS; assay type: cell-based, human; details: Homo sapiens, 72 h
BxPC-3 = test: Cell viability analysis, pancreatic cancer BxPC-3; assay type: cell-based, human; details: Homo sapiens, 72 h; BxPC-3; repeated experiment; read-out: The results of antibiotic drug inhibiting cancer cell lines (cell viability analysis), BxPC-3
[11] = tested on: A549 (Lung Adenocarcinoma); test: Cell viability analysis, lung cancer A549; assay type: cell-based, human; details: Homo sapiens, A549, 72 h
cancer cell lines = test: Cell viability analysis (WST-1) on cancer cell lines; assay type: cell-based, human; details: drug 10 μM, 72 hours, WST-1; Table 3
[12] = tested on: A375 (Amelanotic Melanoma); test: Cell viability analysis, skin cancer A375; assay type: cell-based, human; details: Homo sapiens, A-375, 72 h
[13] = tested on: Hep3B (hepatocellular carcinoma); test: Cell viability analysis, hepatic cancer Hep3B; assay type: cell-based, human; details: Homo sapiens, 72 h; Hep3B; repeated experiment; read-out: The results of antibiotic drug inhibiting cancer cell lines (cell viability analysis), Hep3B
U-2OS = test: Cell viability analysis, osteosarcoma U-2OS; assay type: cell-based, human; details: Homo sapiens, 72 h; U2OS; repeated experiment; read-out: The results of antibiotic drug inhibiting cancer cell lines (cell viability analysis), U2OS
[14] = tested on: LoVo (Colorectal Adenocarcinoma); test: Cell viability analysis, colon cancer LoVo; assay type: cell-based, human; details: Homo sapiens, LoVo, 72 h
NIH: OVCAR-3 = test: Cell viability analysis, ovarian cancer NIH: OVCAR-3; assay type: cell-based, human; details: Homo sapiens, 72 h; NIH-OVCAR-3; repeated experiment; read-out: The results of antibiotic drug inhibiting cancer cell lines (cell viability analysis), NIH-OVCAR-3
[15] = tested on: MKN-45 (Gastric Adenocarcinoma); test: Cell viability analysis, gastric cancer MKN-45; assay type: cell-based, human; details: Homo sapiens, MKN-45, 72 h
[16] = tested on: MDA-MB-231 (Mammary Gland, Adenocarcinoma); test: Cell viability analysis, breast cancer MDA-MB-231; assay type: cell-based, human; details: Homo sapiens, MDA-MB-231, 72 h; MDA-MB231; repeated experiment; read-out: The results of antibiotic drug inhibiting cancer cell lines (cell viability analysis), MDA-MB231
[17] = tested on: HL-60 (Acute Promyelocytic Leukemia); test: Cell viability analysis, leukemia HL-60; assay type: cell-based, human; details: Homo sapiens, HL-60, 72 h, drug 10 μM, 72 hours, WST-1, OD450 nm; read-out: cell viability (survival rate), HL-60

Q: Which viability at 10 µM [1] does the source give for `Cc1ccc2c(Cl)cc(Cl)c(O)c2n1` [Chlorquinaldol] here?
A: Its viability at 10 µM is 43%.

Q: What about the viability at 10 µM ([2]; HepG2, repeated experiment, read-out: The results of antibiotic drug inhibiting cancer cell lines (cell viability analysis), HepG2) of the same compound?
A: Its viability at 10 µM is 82%.

Q: What about the viability at 10 µM ([2]; drug 10 μM, 72 hours, WST-1, OD450 nm, read-out: cell viability (survival rate), HepG2) of the same compound?
A: Its viability at 10 µM is 82.3%.

Q: What about the viability at 10 µM ([3]; H1650, repeated experiment, read-out: The results of antibiotic drug inhibiting cancer cell lines (cell viability analysis), H1650) of the same compound?
A: The viability at 10 µM was 75.2%.

Q: And the viability at 10 µM ([3]; drug 10 μM, 72 hours, WST-1, OD450 nm, read-out: cell viability (survival rate), H1650)?
A: Its viability at 10 µM is 59.6%.

Q: What about the viability at 10 µM [4] of the same compound?
A: Its viability at 10 µM is 47.5%.

Q: And the viability at 10 µM (AsPC-1)?
A: The viability at 10 µM was 62.8%.

Q: And the viability at 10 µM ([5]; TSGH-8301, repeated experiment, read-out: The results of antibiotic drug inhibiting cancer cell lines (cell viability analysis), TSGH-8301)?
A: The viability at 10 µM was 87%.

Q: What about the viability at 10 µM ([5]; drug 10 μM, 72 hours, WST-1, OD450 nm, read-out: cell viability (survival rate), TSGH) of the same compound?
A: Its viability at 10 µM is 70.5%.

Q: And the viability at 10 µM ([6]; repeated experiment, read-out: The results of antibiotic drug inhibiting cancer cell lines (cell viability analysis), HeLa)?
A: The viability at 10 µM was 64.9%.

Q: And the viability at 10 µM ([6]; drug 10 μM, 72 hours, WST-1, OD450 nm, read-out: cell viability (survival rate), HeLa)?
A: Its viability at 10 µM is 42.6%.

Q: And the viability at 10 µM (TOV-21G)?
A: Its viability at 10 µM is 40.1%.

Q: What about the viability at 10 µM [7] of the same compound?
A: Its viability at 10 µM is 20.6%.

Q: What about the viability at 10 µM ([8]; PC-3, repeated experiment, read-out: The results of antibiotic drug inhibiting cancer cell lines (cell viability analysis), PC-3) of the same compound?
A: Its viability at 10 µM is 66.4%.

Q: And the viability at 10 µM ([8]; drug 10 μM, 72 hours, WST-1, OD450 nm, read-out: cell viability (survival rate), PC3)?
A: Its viability at 10 µM is 68.4%.

Q: What about the viability [9] of the same compound?
A: Its viability is 38.5%.

Q: And the viability at 10 µM (T24)?
A: Its viability at 10 µM is 50.6%.

Q: And the viability at 10 µM ([10]; AGS, repeated experiment, read-out: The results of antibiotic drug inhibiting cancer cell lines (cell viability analysis), AGS)?
A: Its viability at 10 µM is 53.9%.

Q: And the viability at 10 µM ([10]; drug 10 μM, 72 hours, WST-1, OD450 nm, read-out: cell viability (survival rate), AGS)?
A: Its viability at 10 µM is 35.7%.

Q: What about the viability at 10 µM (BxPC-3) of the same compound?
A: The viability at 10 µM was 53.9%.

Q: And the viability at 10 µM ([11]; A549, repeated experiment, read-out: The results of antibiotic drug inhibiting cancer cell lines (cell viability analysis), A549)?
A: The viability at 10 µM was 37.8%.

Q: And the viability at 10 µM ([11]; drug 10 μM, 72 hours, WST-1, OD450 nm, read-out: cell viability (survival rate), A549)?
A: Its viability at 10 µM is 54.5%.

Q: What about the “inhibition effect on different cancer cell lines” value (cancer cell lines) of the same compound?
A: Its value is “significant inhibition effect”.

Q: And the viability at 10 µM ([12]; A375, repeated experiment, read-out: The results of antibiotic drug inhibiting cancer cell lines (cell viability analysis), A375)?
A: Its viability at 10 µM is 35.5%.

Q: What about the viability at 10 µM ([12]; drug 10 μM, 72 hours, WST-1, OD450 nm, read-out: cell viability (survival rate), A375) of the same compound?
A: The viability at 10 µM was 43%.

Q: And the viability at 10 µM [13]?
A: The viability at 10 µM was 105%.

Q: What about the viability at 10 µM (U-2OS) of the same compound?
A: The viability at 10 µM was 32.4%.

Q: And the viability at 10 µM ([14]; read-out: The results of antibiotic drug inhibiting cancer cell lines (cell viability analysis), LoVo, repeated experiment)?
A: Its viability at 10 µM is 45.8%.

Q: And the viability at 10 µM ([14]; read-out: cell viability (survival rate), LoVo, drug 10 μM, 72 hours, WST-1, OD450 nm)?
A: The viability at 10 µM was 62.8%.

Q: What about the viability at 10 µM (NIH: OVCAR-3) of the same compound?
A: The viability at 10 µM was 78.1%.

Q: And the viability at 10 µM ([15]; MKN-45, repeated experiment, read-out: The results of antibiotic drug inhibiting cancer cell lines (cell viability analysis), MKN-45)?
A: The viability at 10 µM was 92.4%.

Q: And the viability at 10 µM ([15]; drug 10 μM, 72 hours, WST-1, OD450 nm, read-out: cell viability (survival rate), MKN-45)?
A: Its viability at 10 µM is 75.4%.

Q: What about the viability at 10 µM [16] of the same compound?
A: Its viability at 10 µM is 65%.

Q: And the viability at 10 µM [17]?
A: Its viability at 10 µM is 64.8%.
